Experimental data as given in patent US20250003969A1, “METHODS TO IDENTIFY AND TREAT SUBJECTS HAVING CORTICOSTEROID-RESISTANT INFLAMMATORY DISEASES” (priority 2013, published 2025).
“Also recorded” adds a separate entry of the source.

How the values were obtained:
[1] = Bronchodilator responsiveness (FEV1 reversal with albuterol); assay type: in vivo, human
Excerpt: (§1) Study subjects. Thirty-nine adult asthmatics were enrolled in this study. […] Patients completed asthma questionnaires (ACQ) to assess their asthma control. […] Twelve healthy nonatopic subjects underwent bronchoscopy as controls. Smokers were excluded from participation in this study. Informed consent was obtained from all study participants before enrollment in this study.
26 adult asthma patients were enrolled. Sample collection involved assessment of patients with a clinical history of asthma, airflow limitation (baseline FEV1≤85% predicted) and either airway hyperresponsiveness (PC20 methacholine<8 mg/ml) or bronchodilator responsiveness (>12% improvement in FEV1% predicted after […] metered-dose inhaler albuterol).

[2] = test system: peripheral blood monocytes from asthmatics; assay: Effects of inhibitors on MKP-1 and IL-8 mRNA induction by H. parainfluenzae and on cellular response to corticosteroids (real time PCR); assay type: cell-based, human; settings: for cellular sensitivity to corticosteroids in vitro (MKP-1 mRNA induction by DEX) in the presence of H. parainfluenzae: inhibitor 1 h, bacteria 15 min, then 3 h DEX, FIG. 4C; for MKP-1 mRNA induction by H. parainfluenzae / IL-8 mRNA induction by H. parainfluenzae: monocytes preincubated with inhibitor 1 h (TAK1 inhibitor 2 μM, others 10 μM); for MKP-1 mRNA induction by H. parainfluenzae: bacteria to cell ratio 1:1, FIG. 4A; for IL-8 mRNA induction by H. parainfluenzae: bacteria to cell ratio 1:1, FIG. 4B
Experimental: Cell culture and treatment. Peripheral blood mononuclear cells (PBMC) were isolated from asthma patients. Monocytes were prepared by negative selection using Human Monocyte Isolation Kit II (Milteniyi Biotech Inc., Auburn, CA). BAL macrophages were enriched by 3 h plastic adhesion. Cell purity was ≥95%. In all experiments, monocytes and BAL macrophages were cultured in the X-VIVO™ 15 serum free medium overnight; medium was replaced with X-VIVO™ 15 medium without antibiotics prior to addition of bacteria. Bacteria were added to 10^6 cells/ml in culture at 0.1 or 1 bacteria per cell.
In vitro response to corticosteroids in the presence of bacteria. 0.5×10^6 monocytes or 2.5×10^5 BAL macrophages per condition were cultured overnight in X-VIVO™ 15 media, treated with 0.1 to 1 bacteria per cell or 10 ng/ml of E. coli strain 0111: B4 LPS (Sigma-Aldrich Corp) for 15 min and stimulated with 10^−6 M dexamethasone (DEX) for an additional 3 h still in the presence of bacteria. Following incubation the cells were preserved in RLT buffer (Qiagen, Inc., Valencia, CA). RNA was extracted using RNAEASYR Mini kit (Qiagen), and analyzed by real-time PCR as previously described (Goleva E et al., J Allergy Clin Immunol 2012; 129: 687-93e1) for the expression of corticosteroid-regulated targets mitogen activated kinase phosphatase 1 (MKP-1), and IL-8. 18s RNA was measured as a house keeping gene. All primers were purchased from Applied Biosystems (Life Technologies Corporation, Carlsbad, CA). Standard curves for gene targets were generated using the fluorescent data from two-fold serial dilutions of total RNA of the highest expression sample. Quantities of each target gene in test samples were normalized to the corresponding levels of the housekeeping gene (18s RNA) in each sample. Fold induction and fold suppression by DEX of selected gene targets was calculated for cells cultured in media, with LPS or with bacteria.
The effects of inhibitors on cellular response to corticosteroids. To examine whether MAPK inhibition or transforming growth factor beta associated kinase 1 (TAK1) inhibition reverses the corticosteroid resistant response to pathogenic microbes, monocytes were pretreated with either TAK1 inhibitor (5Z)-7-Oxozeaenol, Curvularia sp. (Calbiochem, EMD Serono, Inc., Rockland, MA) (2 μM), the p38 inhibitor, SB203580 (10 μM) (Calbiochem) or the cocktail of the three MAPK inhibitors (SB203580, p38 inhibitor; PD98059, MEK1/ERK inhibitor (Invitrogen, Life Technologies, Grand Island, NY) and SP600125, JNK inhibitor (InVivogen, San Diego, CA), all at 10 μM) for 1 h prior to stimulation with bacteria and cellular response to corticosteroids was evaluated by real time PCR as described above. To assess the efficacy of inhibitors on suppression of cell activation induced by bacteria cells were pretreated with inhibitors for 1 h or cultured in media, stimulated with H. parainfluenzae for 15 min. Protein lysates were prepared as described above. ERK and hsp27 phosphorylation as downstream targets for TAK1 and p38 MAPK activation, respectively, were assessed by Western blot as described in (Zhang Y et al., J Immunol 2012, in press; Li L B et al., J Allergy Clin Immunol 2004; 114: 1059-69; Zhang Y et al., J Biol Chem 2009; 284: 24542-52).
Toll-like receptor (TLR) engagement by bacteria is the major pathway of cell activation by bacteria (Akira S, Nat Rev Immunol 2004; 4: 499-511). TAK1 phosphorylation represents a key downstream TLR signaling branching point that controls both MAPK and NFKB pathway activation in the cells (Liew F Y et al., Nat Rev Immunol 2005; 5: 446-58). To address the role of TLR signaling pathways in MAPK and TAK1 activation by H. parainfluenzae and the alteration of cellular response to corticosteroids, asthmatic peripheral blood monocytes were preincubated with/without TAK1 and MAPK inhibitors for 1 hour, stimulated with bacteria followed by treatment with DEX or medium and analyzed by real time PCR.

[3] = test system: hsp27 phosphorylation; assay: Western blot of hsp27 phosphorylation as downstream read out for p38 MAPK activation by H. parainfluenzae; assay type: cell-based, human; settings: 10 μM inhibitor, 15 min H. para, bacteria to cell ratio 1:1, monocytes from asthma patients, FIG. 4D
Experimental: (§2) P38 mitogen activated protein kinase (MAPK) stimulation by bacteria. P38 MAPK activation in response to various concentrations of pathogenic and commensal bacteria as well as time course of p38 activation in response to these bacteria was determined. Cells were stimulated with 0.1 and 1 bacteria per cell, at kinetic time frames from 15 min to 3 h (monocytes), or after 3h of stimulation with bacteria (BAL macrophages). […] Protein concentration was determined by Bradford assay and cell lysates were analyzed for p-p38 MAPK expression by Western blot as described by us earlier (Zhang Y et al., J Immunol 2012, in press).
(§3) The effects of inhibitors on cellular response to corticosteroids. […] (Calbiochem, EMD Serono, Inc., Rockland, MA) (2 μM), the p38 inhibitor, SB203580 (10 μM) (Calbiochem) or the cocktail of the three MAPK inhibitors (SB203580, p38 inhibitor; PD98059, MEK1/ERK inhibitor (Invitrogen, Life Technologies, Grand Island, NY) and SP600125, JNK inhibitor (InVivogen, San Diego, CA), all at 10 μM) for 1 h prior to stimulation with bacteria and cellular response to corticosteroids was evaluated by real time PCR as described above. […]

[4] = Clinical response to oral prednisone burst (FEV1 percent predicted); assay type: in vivo, human; settings: for FEV1% change after Prednisone burst, (Mean ± SD): prednisone 20 mg by mouth twice daily for 7 days; for FEV1% change after Prednisone burst, (Mean ± SE): one week 40 mg/d oral prednisone
Excerpt: as §1
Corticosteroid response of asthmatics was classified based on their prebronchodilator morning FEV1% predicted response to one week course of 40 mg/d oral prednisone.

[5] = test system: ERK phosphorylation; assay: Western blot of ERK phosphorylation as downstream read out for TAK1 activation by H. parainfluenzae; assay type: cell-based, human; settings: 2 μM inhibitor, 15 min H. para, bacteria to cell ratio 1:1, monocytes from asthma patients, FIG. 4D
Experimental: as §2, §3

CC(C)(C)NCC(O)c1ccc(O)c(CO)c1 (centres unmarked) [Albuterol, albuterol]
FEV1% reversal with Albuterol, (Mean ± SD) ([1]; CR asthma, n = 29, 180 μg albuterol inhaled): 15.0 ± 9.4% | FEV1% reversal with Albuterol, (Mean ± SD) ([1]; CS asthma, n = 10, 180 μg albuterol inhaled): 37.2 ± 24.7% | FEV1% reversal with Albuterol, (Mean ± SD) ([1]; Normal controls, n = 12): 5.1 ± 2.4% | FEV1% reversal with Albuterol, (Mean ± SE) ([1]; SR asthma, n = 12): 13.3 ± 2.1 % | FEV1% reversal with Albuterol, (Mean ± SE) ([1]; SS asthma, n = 13): 41.1 ± 8.7%

C[S+]([O-])c1ccc(-c2nc(-c3ccncc3)c(-c3ccc(F)cc3)[nH]2)cc1 (centres unmarked) [P38 MAPK inhibitor, SB203580]
cellular sensitivity to corticosteroids in vitro (MKP-1 mRNA induction by DEX) in the presence of H. parainfluenzae [2]: failed to restore | MKP-1 mRNA induction by H. parainfluenzae [2]: reduced | IL-8 mRNA induction by H. parainfluenzae [2]: reduced | hsp27 phosphorylation by H. parainfluenzae [3]: fully inhibited

C[C@]12C=CC(=O)C=C1CC[C@@H]1[C@@H]2C(=O)C[C@@]2(C)[C@H]1CC[C@]2(O)C(=O)CO [Prednisone, prednisone]
FEV1% change after Prednisone burst, (Mean ± SD) ([4]; CR asthma, n = 29): −0.2±5.9% | FEV1% change after Prednisone burst, (Mean ± SD) ([4]; CS asthma, n = 10): 31.0±23.5% | FEV1% change after Prednisone burst, (Mean ± SE) ([4]; SR asthma, n = 12): 0.8 ± 1.9 % | FEV1% change after Prednisone burst, (Mean ± SE) ([4]; SS asthma, n = 13): 42.2 ± 10.0%

COc1cc(O)c2c(c1)/C=C/C[C@H](O)[C@H](O)C(=O)/C=C\C[C@H](C)OC2=O [TAK1 inhibitor, (5Z)-7-Oxozeaenol]
cellular sensitivity to corticosteroids in vitro (MKP-1 mRNA induction by DEX) in the presence of H. parainfluenzae [2]: restoration of cellular sensitivity to corticosteroids; also recorded: steroid sensitive | MKP-1 mRNA induction by H. parainfluenzae [2]: significant inhibition | IL-8 mRNA induction by H. parainfluenzae [2]: significant inhibition | ERK phosphorylation by H. parainfluenzae [5]: fully inhibited
